# Experimental data: patent US10175256B2, “Compositions and methods utilizing lysophosphatidylcholine scaffolds” (National University Of Singapore, priority 2013, dated 2019)
# Values joined by “and” are separate entries in the source; they are usually repeats but may differ in a detail not shown here. Equal entries are not always repeated.
# Molecular target: T1, mouse Mfsd2a (Mus musculus, UniProt Q9DA75)
# T1 construct: expressed in transfected cells; host or cells: HEK293
# T1 sequence (Q9DA75 1-534): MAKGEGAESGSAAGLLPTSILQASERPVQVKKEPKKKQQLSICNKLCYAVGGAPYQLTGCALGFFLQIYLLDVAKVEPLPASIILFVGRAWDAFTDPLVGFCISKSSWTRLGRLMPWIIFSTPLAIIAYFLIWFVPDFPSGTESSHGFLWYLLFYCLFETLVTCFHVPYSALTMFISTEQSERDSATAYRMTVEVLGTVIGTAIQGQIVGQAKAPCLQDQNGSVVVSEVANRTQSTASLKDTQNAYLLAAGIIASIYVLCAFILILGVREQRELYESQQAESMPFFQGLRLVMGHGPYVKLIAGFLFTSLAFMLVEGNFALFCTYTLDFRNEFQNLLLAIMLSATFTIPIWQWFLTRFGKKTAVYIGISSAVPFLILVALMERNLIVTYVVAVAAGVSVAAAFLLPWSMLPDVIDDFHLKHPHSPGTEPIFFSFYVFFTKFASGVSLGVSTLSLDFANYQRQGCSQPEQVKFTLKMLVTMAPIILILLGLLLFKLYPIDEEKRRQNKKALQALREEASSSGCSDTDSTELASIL
# Experiment: Cell-based free fatty acid transport/uptake in Mfsd2a expressing HEK293 cells (mass spectrometry, TLC; Table 1)
# Details: Mfsd2a HEK293 cells, 100 uM fatty acid/BSA overnight
# How it was run: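 HEK293 cells expressing mouse Mfsd2a, or mock controls, were incubated overnight with 100 μM BSA-complexed fatty acids. Lipids were extracted in hexane:isopropanol (3:2) and phospholipid species quantified by HPLC-MS/MS against spiked internal standards. For TLC, cells received 100 μM [^14C]-oleate overnight, and phospholipids and neutral lipids were resolved.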
structure (smiles),measurement,value
CCCCCCCCCCCCCCCC(=O)O [Palmitic acid],% DHA in PC + lysoPC,0.03823% and 0.0379% and 0.03421%
same,% DHA in PE + lysoPE,10.42% and 11.02% and 9.771%
same,% DHA in PI and lysoPI,0.01451% and 0.01192% and 0.01113%
same,% DHA in PS,0.1262% and 0.1099% and 0.1138%
same,LPI16:0 in total phospholipid,0.004365 mol percent and 0.003505 mol percent and 0.0022 mol percent
same,LPI18:0 in total phospholipid,0.02606 mol percent and 0.0265 mol percent and 0.02588 mol percent
same,LPI20:4 in total phospholipid,0.001669 mol percent and 0.001542 mol percent and 0.001553 mol percent
same,LPI22:6 in total phospholipid,0.007831 mol percent and 0.008132 mol percent and 0.006212 mol percent
same,Lyso PE16:0p in total phospholipid,2.777 mol percent and 2.934 mol percent and 3.347 mol percent
same,Lyso PE18:0p in total phospholipid,0.434 mol percent and 0.5456 mol percent and 0.7875 mol percent
same,Lyso PE20:0p in total phospholipid,0.2604 mol percent and 0.1622 mol percent and 0.3221 mol percent
same,LysoPC16:0e in total phospholipid,0.004306 mol percent and 0.004045 mol percent and 0.00338 mol percent
same,LysoPC16:0 in total phospholipid,0.02231 mol percent and 0.02238 mol percent and 0.01839 mol percent
same,LysoPC16:1 in total phospholipid,0.006002 mol percent and 0.005731 mol percent and 0.005746 mol percent
same,LysoPC18:0e in total phospholipid,0.002349 mol percent and 0.002697 mol percent and 0.00142 mol percent
same,LysoPC18:0 in total phospholipid,0.005806 mol percent and 0.006675 mol percent and 0.006016 mol percent
same,LysoPC18:1 in total phospholipid,0.01311 mol percent and 0.01254 mol percent and 0.01251 mol percent
same,LysoPC18:2 in total phospholipid,0.001631 mol percent and 0.001146 mol percent and 0.001487 mol percent
same,LysoPC20:4 in total phospholipid,0.000587 mol percent and 0.000539 mol percent and 0.000608 mol percent
same,LysoPC22:6 in total phospholipid,0.000652 mol percent and 0.000809 mol percent and 0.000879 mol percent
same,LysoPE16:1 in total phospholipid,0.1736 mol percent and 0.1327 mol percent and 0.1253 mol percent
same,LysoPE18:0 in total phospholipid,0.1042 mol percent and 0.08847 mol percent and 0.1611 mol percent
same,LysoPE18:1 in total phospholipid,0.1215 mol percent and 0.07373 mol percent and 0.07159 mol percent
same,PC32:0e in total phospholipid,1.809 mol percent and 1.851 mol percent and 1.702 mol percent
same,PC32:0 in total phospholipid,2.456 mol percent and 2.444 mol percent and 2.298 mol percent
same,PC32:1e in total phospholipid,2.403 mol percent and 2.512 mol percent and 2.3 mol percent
same,PC32:1 in total phospholipid,9.104 mol percent and 9.244 mol percent and 8.731 mol percent
same,PC32:2 in total phospholipid,1.488 mol percent and 1.519 mol percent and 1.412 mol percent
same,PC34:1e in total phospholipid,4.813 mol percent and 4.891 mol percent and 4.611 mol percent
same,PC34:1 in total phospholipid,18.56 mol percent and 18.94 mol percent and 17.94 mol percent
same,PC34:2e in total phospholipid,1.486 mol percent and 1.537 mol percent and 1.423 mol percent
same,PC34:2 in total phospholipid,6.06 mol percent and 6.22 mol percent and 5.829 mol percent
same,PC34:3e in total phospholipid,0.2283 mol percent and 0.2319 mol percent and 0.2175 mol percent
same,PC34:3 in total phospholipid,0.615 mol percent and 0.6295 mol percent and 0.5976 mol percent
same,PC36:1e in total phospholipid,1.432 mol percent and 1.425 mol percent and 1.342 mol percent
same,PC36:1 in total phospholipid,2.54 mol percent and 2.547 mol percent and 2.409 mol percent
same,PC36:2e in total phospholipid,1.609 mol percent and 1.633 mol percent and 1.504 mol percent
same,PC36:2 in total phospholipid,5.692 mol percent and 5.815 mol percent and 5.439 mol percent
same,PC36:3e in total phospholipid,0.8012 mol percent and 0.8224 mol percent and 0.7603 mol percent
same,PC36:3 in total phospholipid,1.149 mol percent and 1.165 mol percent and 1.071 mol percent
same,PC36:4e in total phospholipid,0.4287 mol percent and 0.4448 mol percent and 0.4173 mol percent
same,PC36:4 in total phospholipid,0.3268 mol percent and 0.3193 mol percent and 0.308 mol percent
same,PC36:5e in total phospholipid,0.3253 mol percent and 0.3343 mol percent and 0.309 mol percent
same,PC36:5 in total phospholipid,0.05232 mol percent and 0.05663 mol percent and 0.05164 mol percent
same,PC36:6 in total phospholipid,0.05108 mol percent and 0.04821 mol percent and 0.04326 mol percent
same,PC38:1e in total phospholipid,0.3517 mol percent and 0.3555 mol percent and 0.3378 mol percent
same,PC38:3e in total phospholipid,0.4164 mol percent and 0.4068 mol percent and 0.3798 mol percent
same,PC38:3 in total phospholipid,0.5146 mol percent and 0.5317 mol percent and 0.5066 mol percent
same,PC38:4e in total phospholipid,0.4168 mol percent and 0.4143 mol percent and 0.3843 mol percent
same,PC38:4 in total phospholipid,0.4407 mol percent and 0.4455 mol percent and 0.4228 mol percent
same,PC38:5e in total phospholipid,0.3513 mol percent and 0.3625 mol percent and 0.3264 mol percent
same,PC38:5 in total phospholipid,0.2268 mol percent and 0.2451 mol percent and 0.2273 mol percent
same,PC38:6 in total phospholipid,0.1683 mol percent and 0.1727 mol percent and 0.1591 mol percent
same,PC38:7 in total phospholipid,0.1176 mol percent and 0.1195 mol percent and 0.1136 mol percent
same,PC40:1e in total phospholipid,0.1793 mol percent and 0.1879 mol percent and 0.168 mol percent
same,PC40:2e in total phospholipid,0.1944 mol percent and 0.1992 mol percent and 0.1788 mol percent
same,PC40:3e in total phospholipid,0.1397 mol percent and 0.1434 mol percent and 0.1332 mol percent
same,PC40:4e in total phospholipid,0.1237 mol percent and 0.1272 mol percent and 0.1205 mol percent
same,PC40:5e in total phospholipid,0.1172 mol percent and 0.1169 mol percent and 0.1115 mol percent
same,PC40:5 in total phospholipid,0.08233 mol percent and 0.08765 mol percent and 0.07997 mol percent
same,PC40:6 in total phospholipid,0.1131 mol percent and 0.1203 mol percent and 0.105 mol percent
same,PC40:7 in total phospholipid,0.1694 mol percent and 0.1653 mol percent and 0.1619 mol percent
same,PE32:1 in total phospholipid,0.4397 mol percent and 0.3146 mol percent and 0.3699 mol percent
same,PE32:2 in total phospholipid,0.09258 mol percent and 0.118 mol percent and 0.1193 mol percent
same,PE34:1 in total phospholipid,1.562 mol percent and 1.425 mol percent and 1.336 mol percent
same,PE34:2 in total phospholipid,1.088 mol percent and 0.9634 mol percent and 1.014 mol percent
same,PE34p:1 in total phospholipid,1.042 mol percent and 1.072 mol percent and 1.479 mol percent
